Measured values taken from patent publication US20260132129A1 (Genesis Therapeutics, Inc., priority 2022, published 2026).

Molecular target: T1, PI3Kα H1047R (T47D cells) (Homo sapiens, UniProt P42336, H1047R)
T1 construct: endogenous in cells; host or cells: T47D cells
Assay: PI3Kα cellular assay: pAKT HTRF in T47D cells after EGF stimulation
Format: cell-based
Conditions: for IC50: T47D cells (PI3Kα H1047R), pAKT S473 HTRF, 1 hr compound, 20 ng/ml EGF 10 min
Summary of the method: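 T47D cells (PIK3CA H1047R) serum-starved 16 h, then treated 1 h at 37 °C with compound (10,000 nM top, 3-fold steps to 0.5 nM). After 10 min stimulation with 20 ng/mL EGF, cells were lysed and pAKT measured by HTRF.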

T1 sequence (P42336 whole entry H1047R): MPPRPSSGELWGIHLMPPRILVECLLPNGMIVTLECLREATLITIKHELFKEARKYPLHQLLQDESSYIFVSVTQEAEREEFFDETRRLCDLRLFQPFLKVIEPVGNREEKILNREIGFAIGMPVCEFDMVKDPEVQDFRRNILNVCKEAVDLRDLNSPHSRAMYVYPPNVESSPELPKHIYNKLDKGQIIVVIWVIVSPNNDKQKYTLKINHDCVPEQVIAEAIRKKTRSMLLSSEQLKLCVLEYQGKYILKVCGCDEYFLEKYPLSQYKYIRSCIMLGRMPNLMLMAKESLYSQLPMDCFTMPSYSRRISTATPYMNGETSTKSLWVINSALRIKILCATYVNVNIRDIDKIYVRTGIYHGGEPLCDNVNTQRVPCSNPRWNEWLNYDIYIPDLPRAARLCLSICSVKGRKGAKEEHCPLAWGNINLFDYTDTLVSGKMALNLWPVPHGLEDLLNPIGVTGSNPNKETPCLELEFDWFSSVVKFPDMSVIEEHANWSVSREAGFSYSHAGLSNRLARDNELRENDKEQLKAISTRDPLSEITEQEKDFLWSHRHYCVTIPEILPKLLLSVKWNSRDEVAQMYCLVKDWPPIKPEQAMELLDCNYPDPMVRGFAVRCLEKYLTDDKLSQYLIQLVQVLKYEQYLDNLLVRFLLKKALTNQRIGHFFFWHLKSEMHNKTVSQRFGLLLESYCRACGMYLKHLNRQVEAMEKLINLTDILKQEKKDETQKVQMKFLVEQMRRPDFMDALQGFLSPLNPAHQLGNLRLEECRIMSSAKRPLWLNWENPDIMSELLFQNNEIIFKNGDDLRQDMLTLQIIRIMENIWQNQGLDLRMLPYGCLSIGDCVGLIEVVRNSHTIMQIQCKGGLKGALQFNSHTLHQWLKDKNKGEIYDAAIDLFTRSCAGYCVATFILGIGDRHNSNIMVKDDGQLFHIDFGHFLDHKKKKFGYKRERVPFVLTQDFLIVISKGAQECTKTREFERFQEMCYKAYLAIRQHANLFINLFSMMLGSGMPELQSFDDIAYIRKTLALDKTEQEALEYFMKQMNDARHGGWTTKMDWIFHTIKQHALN
T1 sequence (P27986 whole entry partner): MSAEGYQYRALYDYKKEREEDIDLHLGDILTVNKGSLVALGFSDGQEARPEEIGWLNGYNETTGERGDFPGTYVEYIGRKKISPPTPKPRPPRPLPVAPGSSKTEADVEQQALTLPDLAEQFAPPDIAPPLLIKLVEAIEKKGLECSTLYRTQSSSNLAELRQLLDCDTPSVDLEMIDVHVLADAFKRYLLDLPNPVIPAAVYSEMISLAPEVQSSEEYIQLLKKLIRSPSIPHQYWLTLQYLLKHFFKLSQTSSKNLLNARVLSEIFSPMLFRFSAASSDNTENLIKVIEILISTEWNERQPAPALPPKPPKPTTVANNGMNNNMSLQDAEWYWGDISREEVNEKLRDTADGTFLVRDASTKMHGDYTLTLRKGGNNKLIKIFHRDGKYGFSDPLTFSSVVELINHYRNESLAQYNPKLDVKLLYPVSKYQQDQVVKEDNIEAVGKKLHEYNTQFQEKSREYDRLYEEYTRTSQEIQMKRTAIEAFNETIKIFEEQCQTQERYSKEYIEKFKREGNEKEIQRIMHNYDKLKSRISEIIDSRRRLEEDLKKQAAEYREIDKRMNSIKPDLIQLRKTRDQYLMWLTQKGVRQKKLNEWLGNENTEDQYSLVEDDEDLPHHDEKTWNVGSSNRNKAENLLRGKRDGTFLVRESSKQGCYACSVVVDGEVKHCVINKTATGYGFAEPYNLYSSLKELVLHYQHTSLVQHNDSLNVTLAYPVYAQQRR

Row | T47D pAKT S473 HTRF IC50 (H1047R): T47D (H1047R) selectivity over SKBR3 (WT) | IC50 [nM] | Compound
1 | C (C denotes ≤5-fold) |  | Cc1cc([C@H](C)Nc2ccccc2C(=O)O)c2nc(-c3ccccc3)cc(=O)n2c1 [Compound 423]
2 | C (C denotes ≤5-fold) |  | Cc1cc([C@H](C)Nc2ccccc2C(=O)O)c2nc(N3CCC(C)(C)CC3)cc(=O)n2c1 [Compound 432]
3 | C (C denotes ≤5-fold) |  | Cc1cc(C(C)Nc2ccccc2C(=O)O)c2nc(N3CCC(NS(C)(=O)=O)CC3)cc(=O)n2c1 (stereo not shown) [Compound 433]
4 | C (C denotes ≤5-fold) |  | Cc1cc(C(C)Nc2ccccc2C(=O)O)c2nc(N3CCC(NS(C)(=O)=O)CC3)cc(=O)n2c1 (stereo not shown) [Compound 434]
5 | C (C denotes ≤5-fold) | > 2000 | Cc1cc(C(C)Nc2ccccc2C(N)=O)c2nc(-c3ccncc3)cc(=O)n2c1 (stereo not shown) [Compound 438]
6 | A (A denotes >20-fold) | < 100 | Cc1cc(C(C)Nc2ccccc2C(=O)O)c2nc(-c3ccc4c(c3)c(N(C)C)nn4C)cc(=O)n2c1 (stereo not shown) [Compound 457]
7 | C (C denotes ≤5-fold) | > 2000 | Cc1cc([C@@H](C)Nc2ccccc2C(=O)O)c2nc(-c3cc[nH]c(=O)c3)cc(=O)n2c1 [Compound 461]
8 | C (C denotes ≤5-fold) | > 2000 | Cc1cc(C(C)Nc2ccccc2C(=O)O)c2nc(-c3ccc4c(c3)NC(CO)N4)cc(=O)n2c1 (stereo not shown) [Compound 466]
9 | C (C denotes ≤5-fold) | > 2000 | Cc1cc(C(C)Nc2ccccc2C(=O)O)c2nc(N3CCN(c4ccncc4)CC3)cc(=O)n2c1 (stereo not shown) [Compound 467]
10 | B (B denotes 20-fold≥value>5-fold) | 500 to 2000 | Cc1cc(C(C)Nc2ccccc2C(=O)O)c2nc(N3CCC4(CC3)COC4)cc(=O)n2c1 (stereo not shown) [Compound 471]
11 | C (C denotes ≤5-fold) | > 2000 | Cc1cc([C@@H](C)Nc2ccccc2C(=O)O)c2cc(-c3ccncn3)cc(=O)n2c1 [Compound 481]
12 | C (C denotes ≤5-fold) | > 2000 | CONC(=O)c1ccc(-c2cc(=O)n3cc(C)cc([C@@H](C)Nc4ccccc4C(=O)O)c3n2)cc1 [Compound 485]
13 | A (A denotes >20-fold) | 100 to 500 | CONC(=O)c1ccc(-c2cc(=O)n3cc(C)cc([C@H](C)Nc4ccccc4C(=O)O)c3n2)cc1 [Compound 486]
14 | C (C denotes ≤5-fold) | > 2000 | Cc1cc(C(C)Nc2ccccc2C(=O)O)c2nc(-c3ccc(C(=O)NO)cc3)cc(=O)n2c1 (stereo not shown) [Compound 487]
15 | C (C denotes ≤5-fold) | > 2000 | Cc1cc([C@@H](C)Nc2ccccc2C(=O)O)c2nc(-c3ccc4nc(CO)[nH]c4c3)cc(=O)n2c1 [Compound 488]
16 | C (C denotes ≤5-fold) | > 2000 | Cc1cc(C(C)Nc2ccccc2C(=O)O)c2nc(N3CCC4(CC3)CC(=O)N4)cc(=O)n2c1 (stereo not shown) [Compound 490]
17 | C (C denotes ≤5-fold) | 500 to 2000 | Cc1cc([C@H](C)Nc2ccccc2-c2ccnnc2)c2nc(N3CCOCC3)cc(=O)n2c1 [Compound 496]
18 | B (B denotes 20-fold≥value>5-fold) | 500 to 2000 | Cc1cc([C@@H](C)Nc2ccccc2C(=O)O)c2nc(-c3cc(C)c4[nH]c(=O)[nH]c4c3)cc(=O)n2c1 [Compound 497]
19 | C (C denotes ≤5-fold) | > 2000 | Cc1cc([C@H](C)Nc2ccccc2C(=O)O)c2nc(-c3cc(C)c4[nH]c(=O)[nH]c4c3)cc(=O)n2c1 [Compound 498]
20 | C (C denotes ≤5-fold) | > 2000 | Cc1cc([C@@H](C)Nc2ccccc2C(=O)O)c2nc(-c3ccc(C(=O)NO)cc3)cc(=O)n2c1 [Compound 501]
21 | C (C denotes ≤5-fold) | > 2000 | Cc1cc([C@H](C)Nc2ccccc2C(=O)O)c2nc(-c3ccc(C(=O)NO)cc3)cc(=O)n2c1 [Compound 502]
22 | C (C denotes ≤5-fold) | > 2000 | CCc1cc(C(=O)NOC)ccc1-c1cc(=O)n2cc(C)cc([C@@H](C)Nc3ccccc3C(=O)O)c2n1 [Compound 503]
23 | C (C denotes ≤5-fold) | > 2000 | CC(=O)Cc1cc2ccc(-c3cc(=O)n4cc(C)cc(C(C)Nc5ccccc5C(=O)O)c4n3)cn2n1 (stereo not shown) [Compound 507]
24 | C (C denotes ≤5-fold) | > 2000 | CC(=O)N1CCC(c2cc(=O)n3cc(C)cc(C(C)Nc4ccccc4C(=O)O)c3n2)CC1 (stereo not shown) [Compound 508]
25 | C (C denotes ≤5-fold) | > 2000 | Cc1cc([C@H](C)Nc2ccccc2C(=O)O)c2nc(C3CCN(CC(N)=O)CC3)cc(=O)n2c1 [Compound 510]
26 | C (C denotes ≤5-fold) | > 2000 | CC(=O)N1CCCC(c2cc(=O)n3cc(C)cc(C(C)Nc4ccccc4C(=O)O)c3n2)CC1 (stereo not shown) [Compound 511]

Second part, the compound before the results:

Row | Compound | T47D pAKT S473 HTRF IC50 (H1047R): T47D (H1047R) selectivity over SKBR3 (WT) | IC50 [nM]
27 | Cc1cc([C@@H](C)Nc2ccccc2C(=O)O)c2nc(N3CC[Si](C)(C)CC3)cc(=O)n2c1 [Compound 446] | C (C denotes ≤5-fold) | > 2000
28 | Cc1cc(C(C)Nc2ccccc2C(=O)O)c2nc(-c3ccnnc3)cc(=O)n2c1 (stereo not shown) [Compound 460] | B (B denotes 20-fold≥value>5-fold) | 500 to 2000
29 | Cc1cc([C@H](C)Nc2ccccc2C(=O)O)c2nc(-c3cc[nH]c(=O)c3)cc(=O)n2c1 [Compound 462] | C (C denotes ≤5-fold) | > 2000
30 | Cc1cc(C(C)Nc2ccccc2C(=O)O)c2nc(N3CCC(C)(O)CC3)cc(=O)n2c1 (stereo not shown) [Compound 473] | C (C denotes ≤5-fold) | > 2000
31 | Cc1cc([C@H](C)Nc2ccccc2C(=O)O)c2nc(-c3ccc4c(c3)CC(=O)N4)cc(=O)n2c1 [Compound 478] | A (A denotes >20-fold) | 100 to 500
32 | Cc1cc([C@H](C)Nc2ccccc2C(=O)O)c2cc(-c3ccncn3)cc(=O)n2c1 [Compound 482] | B (B denotes 20-fold≥value>5-fold) | 500 to 2000
33 | Cc1cc([C@@H](C)Nc2ccccc2C(=O)O)c2cc(-c3ccnnc3)cc(=O)n2c1 [Compound 483] | B (B denotes 20-fold≥value>5-fold) | 500 to 2000
34 | Cc1cc([C@H](C)Nc2ccccc2C(=O)O)c2cc(-c3ccnnc3)cc(=O)n2c1 [Compound 484] | C (C denotes ≤5-fold) | > 2000
35 | Cc1cc([C@H](C)Nc2ccccc2C(=O)O)c2nc(-c3ccc4nc(CO)[nH]c4c3)cc(=O)n2c1 [Compound 489] | C (C denotes ≤5-fold) | > 2000
36 | Cc1cc(C(C)Nc2ccccc2C(=O)O)c2nc(N3CCC4(CC3)CNC4=O)cc(=O)n2c1 (stereo not shown) [Compound 491] | C (C denotes ≤5-fold) | > 2000
37 | Cc1cc(C(C)Nc2ccccc2-c2ccnnc2)c2nc(N3CCOCC3)cc(=O)n2c1 (stereo not shown) [Compound 494] | C (C denotes ≤5-fold) | > 2000
38 | Cc1cc([C@@H](C)Nc2ccccc2-c2ccnnc2)c2nc(N3CCOCC3)cc(=O)n2c1 [Compound 495] | C (C denotes ≤5-fold) | > 2000
39 | Cc1cc([C@@H](C)Nc2ccccc2C(=O)O)c2nc(-c3ccc4[nH]c(=O)[nH]c4c3)cc(=O)n2c1 [Compound 499] | A (A denotes >20-fold) | 100 to 500
40 | Cc1cc([C@H](C)Nc2ccccc2C(=O)O)c2nc(-c3ccc4[nH]c(=O)[nH]c4c3)cc(=O)n2c1 [Compound 500] | C (C denotes ≤5-fold) | > 2000
41 | CCc1cc(C(=O)NOC)ccc1-c1cc(=O)n2cc(C)cc([C@H](C)Nc3ccccc3C(=O)O)c2n1 [Compound 504] | C (C denotes ≤5-fold) | > 2000
42 | Cc1cc(C(C)Nc2ccccc2C(=O)O)c2nc(Nc3ccc4[nH]c(=O)[nH]c4c3)cc(=O)n2c1 (stereo not shown) [Compound 505] | C (C denotes ≤5-fold) | > 2000
43 | Cc1cc(C(C)Nc2ccccc2C(=O)O)c2nc(-c3ccc4c(c3)NC(=O)C4)cc(=O)n2c1 (stereo not shown) [Compound 506] | B (B denotes 20-fold≥value>5-fold) | 500 to 2000
44 | Cc1cc(C(C)Nc2ccccc2C(=O)O)c2nc(C3CCN(CC(N)=O)CC3)cc(=O)n2c1 (stereo not shown) [Compound 509] | C (C denotes ≤5-fold) | > 2000
45 | Cc1cc([C@H](C)Nc2ccccc2C(=O)O)c2nc(N3C[C@H](C)C[C@H](C)C3)cc(=O)n2c1 [Compound 513] | C (C denotes ≤5-fold) | > 2000
46 | Cc1cc(C(C)Nc2ccccc2C(=O)O)c2nc(-c3ccc4[nH]c(=O)[nH]c4c3)cc(=O)n2c1 (stereo not shown) [Compound 514] | B (B denotes 20-fold≥value>5-fold) | 500 to 2000
